From patent US6339045B1, “N-(unsubstituted or substituted)-4-substituted-6-(unsubstituted or substituted)phenoxy-2-pyridinecarboxamides or thiocarboxamides, processes for producing the same, and herbicides” (Kureha Kagaku Kogyo Kabushiki Kaisha, priority 1995, dated 2002)

Experiments:
Assay in all cases: Herbicidal effect by foliage and soil treatment
Format in all cases: in vivo
Conditions in all cases: 10 g ai/10a, evaluated after 14 days
[1] = tested on: black nightshade (Solanum nigrum)
Method in brief: (§1)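 Read-out: rated growth inhibition relative to non-treated plants 14 days after spraying. Young plants (cotyledon to two leaves) received a foliage-and-soil spray of compound in aqueous Tween 20 at a controlled rate, greenhouse at 19–25 °C.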

[2] = tested on: wild chamomile (Matricaria chamomilla)
Method in brief: as §1

[3] = tested on: ivyleafspeedwell (Veronica hederaefolia)
Method in brief: as §1

[4] = tested on: velvetleaf (Abutilon theophrasti)
Method in brief: as §1

[5] = tested on: cleavers (Galium aparine)
Method in brief: as §1

[6] = tested on: common chickweed (Stellaria media)
Method in brief: as §1

[7] = tested on: field bindweed (Convolvulus arvensis)
Method in brief: as §1

[8] = tested on: sicklepod (Cassia obtusifolia)
Method in brief: as §1

[9] = tested on: redroot pigweed (Amaranthus retroflexus)
Method in brief: as §1

[10] = tested on: common blackjack (Bidens pilosa)
Method in brief: as §1

[11] = tested on: kediock (Sinapis arvensis)
Method in brief: as §1

Row | Structure (SMILES) | herbicidal activity rating, SN (Solanum nigrum) [1] | herbicidal activity rating, MC (Matricaria chamomilla) [2] | herbicidal activity rating, VH (Veronica hederaefolia) [3] | herbicidal activity rating, AT (Abutilon theophrasti) [4] | herbicidal activity rating, GA (Galium aparine) [5] | herbicidal activity rating, SM (Stellaria media) [6] | herbicidal activity rating, CA (Convolvulus arvensis) [7] | herbicidal activity rating, CO (Cassia obtusifolia) [8] | herbicidal activity rating, AR (Amaranthus retroflexus) [9] | herbicidal activity rating, BP (Bidens pilosa) [10] | herbicidal activity rating, SA (Sinapis arvensis) [11]
1 | COc1cc(Oc2cccc(C(F)(F)F)c2)nc(C(=O)NC=C(Cl)Cl)c1 [Compound I-83, N-(2,2-dichlorovinyl)-4-methoxy-6-{3-(trifluoromethyl)phenoxy}-2-pyridine carboxamide] | 5 (percentage of weeds killed was not less than 80%) | 5 (percentage of weeds killed was not less than 80%) | 5 (percentage of weeds killed was not less than 80%) | 5 (percentage of weeds killed was not less than 80%) | 5 (percentage of weeds killed was not less than 80%) | 5 (percentage of weeds killed was not less than 80%) | 5 (percentage of weeds killed was not less than 80%) | 5 (percentage of weeds killed was not less than 80%) | 5 (percentage of weeds killed was not less than 80%) | 5 (percentage of weeds killed was not less than 80%) | 5 (percentage of weeds killed was not less than 80%)
2 | COc1cc(Oc2cccc(C(F)(F)F)c2)nc(C(=O)NCCCl)c1 [Compound I-35] | 5 (percentage of weeds killed was not less than 80%) | 5 (percentage of weeds killed was not less than 80%) | 5 (percentage of weeds killed was not less than 80%) | 5 (percentage of weeds killed was not less than 80%) | 5 (percentage of weeds killed was not less than 80%) | 5 (percentage of weeds killed was not less than 80%) | 5 (percentage of weeds killed was not less than 80%) | 5 (percentage of weeds killed was not less than 80%) | 5 (percentage of weeds killed was not less than 80%) | 5 (percentage of weeds killed was not less than 80%) | 5 (percentage of weeds killed was not less than 80%)
3 | COc1cc(Oc2cccc(C(F)(F)F)c2)nc(C(=O)NCC(F)(F)F)c1 [Compound I-82] | 5 (percentage of weeds killed was not less than 80%) | 5 (percentage of weeds killed was not less than 80%) | 5 (percentage of weeds killed was not less than 80%) | 5 (percentage of weeds killed was not less than 80%) | 5 (percentage of weeds killed was not less than 80%) | 5 (percentage of weeds killed was not less than 80%) | 5 (percentage of weeds killed was not less than 80%) | 5 (percentage of weeds killed was not less than 80%) | 5 (percentage of weeds killed was not less than 80%) | 4 (percentage of weeds killed was not less than 60% and less than 80%) | 5 (percentage of weeds killed was not less than 80%)
4 | C=CCNC(=O)c1cc(OC)cc(Oc2cccc(C(F)(F)F)c2)n1 [Compound I-42] | 5 (percentage of weeds killed was not less than 80%) | 4 (percentage of weeds killed was not less than 60% and less than 80%) | 5 (percentage of weeds killed was not less than 80%) | 4 (percentage of weeds killed was not less than 60% and less than 80%) | 5 (percentage of weeds killed was not less than 80%) | 5 (percentage of weeds killed was not less than 80%) | 4 (percentage of weeds killed was not less than 60% and less than 80%) | 5 (percentage of weeds killed was not less than 80%) | 5 (percentage of weeds killed was not less than 80%) | 3 (percentage of weeds killed was not less than 40% and less than 60%) | 5 (percentage of weeds killed was not less than 80%)
5 | CCCCCNC(=O)c1cc(OC)cc(Oc2cccc(C(F)(F)F)c2)n1 [Compound I-52] | 5 (percentage of weeds killed was not less than 80%) | 3 (percentage of weeds killed was not less than 40% and less than 60%) | 5 (percentage of weeds killed was not less than 80%) | 4 (percentage of weeds killed was not less than 60% and less than 80%) | 5 (percentage of weeds killed was not less than 80%) | 5 (percentage of weeds killed was not less than 80%) | 5 (percentage of weeds killed was not less than 80%) | 4 (percentage of weeds killed was not less than 60% and less than 80%) | 5 (percentage of weeds killed was not less than 80%) | 3 (percentage of weeds killed was not less than 40% and less than 60%) | 5 (percentage of weeds killed was not less than 80%)
6 | CCCNC(=S)c1cc(OC)cc(Oc2cccc(C(F)(F)F)c2)n1 [Compound I-34, N-(n-propyl)-4-methoxy-6-{3-(trifluoromethyl)phenoxy}-2-pyridine thiocarboxamide] | 5 (percentage of weeds killed was not less than 80%) | 5 (percentage of weeds killed was not less than 80%) | 5 (percentage of weeds killed was not less than 80%) | 5 (percentage of weeds killed was not less than 80%) | 5 (percentage of weeds killed was not less than 80%) | 5 (percentage of weeds killed was not less than 80%) | 4 (percentage of weeds killed was not less than 60% and less than 80%) | 5 (percentage of weeds killed was not less than 80%) | 5 (percentage of weeds killed was not less than 80%) | 5 (percentage of weeds killed was not less than 80%) | 5 (percentage of weeds killed was not less than 80%)
7 | CNC(=S)c1cc(OC)cc(Oc2cccc(C(F)(F)F)c2)n1 [Compound I-47] | 5 (percentage of weeds killed was not less than 80%) | 3 (percentage of weeds killed was not less than 40% and less than 60%) | 5 (percentage of weeds killed was not less than 80%) | 5 (percentage of weeds killed was not less than 80%) | 5 (percentage of weeds killed was not less than 80%) | 4 (percentage of weeds killed was not less than 60% and less than 80%) | 5 (percentage of weeds killed was not less than 80%) | 5 (percentage of weeds killed was not less than 80%) | 5 (percentage of weeds killed was not less than 80%) | 3 (percentage of weeds killed was not less than 40% and less than 60%) | 5 (percentage of weeds killed was not less than 80%)
